Test results published in PubChem BioAssay (NCI).
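Compound exposure: 48 hours, 5 concentrations, 96-well plates. TGI: total growth inhibition.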

Columns and labels:
Experiment in all cases: NCI-60 cell line screen, 48 h
[1] = test system: MALME-3M melanoma
[2] = test system: NCI-H226 lung
[3] = test system: SF-268 CNS
[4] = test system: A549 NSCLC
[5] = test system: IGROV1 ovarian
[6] = test system: LOX IMVI melanoma
[7] = test system: HCC-2998 colon
[8] = test system: BT-549 breast
[9] = test system: MDA-MB-435
[10] = test system: NCI-H522 lung

For CC(C)N(/C(F)=N\C(=O)Nc1ccccc1C(F)(F)F)C(C)C, the TGI [1] was over 100 µM, the TGI [2] was over 100 µM and the TGI [3] was over 100 µM. It also gave a TGI [4] of over 100 µM, a TGI [5] of over 100 µM and a TGI [6] of over 100 µM. For the same compound, the TGI [7] was 99 µM.
With O=c1[nH]c(=O)n2n1C1C=CC2CC1 the TGI [2] was over 100 µM, the TGI [3] was over 100 µM and the TGI [4] was over 100 µM. It also gave a TGI [5] of over 100 µM, a TGI [6] of over 100 µM and a TGI [8] of over 100 µM. It also gave a TGI [9] of over 100 µM.
CC(=O)OC1[C@H](n2ccnc2)C[C@H]2[C@@H]3CC=C4CC(N5CCCC5)CC[C@]4(C)[C@H]3CC[C@]12C (some centres undefined) gave a TGI [2] of over 100 µM, a TGI [3] of over 100 µM and a TGI [4] of over 100 µM. For the same compound, the TGI [5] was over 100 µM, the TGI [6] was 38.1 µM and the TGI [9] was over 100 µM. The TGI [10] was over 100 µM.
CC1CC(C(=O)OC2OC(COC3OC(CO)C(OC4OC(C)C(O)C(O)C4O)C(O)C3O)C(O)C(O)C2O)C2CCC3(C)C(=CCC4(C)C3CCC3C(C)(CO)C(O)C(O)CC34C)C2C1C (centres undefined) was tested, and the TGI [2] was 80.1 µM, the TGI [3] was 37.8 µM and the TGI [4] was over 100 µM. The TGI [5] was 33.2 µM, the TGI [6] was 58.8 µM and the TGI [8] was 32.3 µM. For the same compound, the TGI [9] was 34.5 µM, the TGI [10] was 30.1 µM and the TGI [7] was 40.8 µM.
COC(=O)C1C(O)C(C)C(O)OC1C(C)C(O)C(C)/C=C\C=C(/C)C(=O)Nc1c(C)c(OC(C)=O)c2c(c1O)C(=O)C(C)=C1OCOC(/C(C)=C/C(C)=O)=C12 (centres undefined) showed a TGI [1] of 24.8 µM, a TGI [2] of 23.4 µM and a TGI [3] of 33.1 µM. It also gave a TGI [4] of 35.3 µM, a TGI [5] of 26.5 µM and a TGI [6] of 26.6 µM. For the same compound, the TGI [10] was 7.74 µM and the TGI [7] was 26.3 µM.
With Cc1[nH]c(=O)nc(N(CCO)/N=C/c2ccc(Cl)cc2)c1C(=O)Nc1ccc(Cl)cc1 the TGI [1] was 68.3 µM, the TGI [2] was over 100 µM and the TGI [3] was over 100 µM. The TGI [4] was over 100 µM, the TGI [5] was over 100 µM and the TGI [6] was over 100 µM. It also gave a TGI [9] of over 100 µM, a TGI [10] of over 100 µM and a TGI [7] of over 100 µM.
NC(C(=O)OC(=O)c1ccccc1)C(=O)OC(=O)c1ccccc1 gave a TGI [1] of over 100 µM, a TGI [2] of over 100 µM and a TGI [3] of over 100 µM. It also gave a TGI [4] of over 100 µM, a TGI [6] of over 100 µM and a TGI [8] of over 100 µM. The TGI [9] was over 100 µM and the TGI [10] was over 100 µM.
For CC#CCCCC1(C)CCCNC1=S (centres undefined), the TGI [1] was over 10 µM, the TGI [3] was over 10 µM and the TGI [4] was over 10 µM. The TGI [5] was over 10 µM, the TGI [6] was over 10 µM and the TGI [8] was over 10 µM. The TGI [9] was over 10 µM and the TGI [10] was over 10 µM.
For O=C1C=C2CC[C@H]3[C@@H]4CC[C@H](Oc5c6ccccc6nc6ccccc56)[C@H]4CC[C@@H]3[C@H]2CC1, the TGI [2] was over 100 µM, the TGI [3] was over 100 µM and the TGI [4] was over 100 µM. It also gave a TGI [5] of over 100 µM, a TGI [6] of over 100 µM and a TGI [8] of over 100 µM. For the same compound, the TGI [9] was over 100 µM.
CN=C(NC)N(C)c1nc(=[N+](C)C)ss1 showed a TGI [2] of over 100 µM, a TGI [3] of over 100 µM and a TGI [4] of over 100 µM. For the same compound, the TGI [5] was over 100 µM, the TGI [6] was over 100 µM and the TGI [10] was over 100 µM. It also gave a TGI [7] of over 100 µM.
Work on COc1ccc(N(C(=O)NCCO)c2ccccc2)cc1 yielded a TGI [1] of over 100 µM, a TGI [2] of over 100 µM and a TGI [3] of over 100 µM. For the same compound, the TGI [4] was over 100 µM, the TGI [5] was over 100 µM and the TGI [6] was over 100 µM. It also gave a TGI [9] of over 100 µM, a TGI [10] of over 100 µM and a TGI [7] of over 100 µM.
N#CCCN(CCC#N)c1ccc(C(N=Nc2ccc(Cl)cc2)=Nc2ccc(Cl)cc2)cc1 gave a TGI [2] of 36.7 µM, a TGI [3] of 33.4 µM and a TGI [4] of 41 µM. For the same compound, the TGI [5] was 28.1 µM, the TGI [8] was 36.3 µM and the TGI [9] was 88.3 µM. The TGI [10] was 32.5 µM and the TGI [7] was 27.1 µM.
